Reference: patent US8691828B2, “Thienopyrimidine as CDC7 kinase inhibitors” (Takeda Pharmaceutical Company Limited, priority 2009, dated 2014)

How the values were obtained:
cdc7/Dbf4 = target: T1, cdc7/Dbf4 (Homo sapiens, UniProt O00311); assay: Determination of cdc7 kinase inhibitory activity (HTRF Transcreener ADP assay); format: biochemical; conditions: test compound 1 μM; 1.0 μM ATP, 10 μg/ml MCM2, 0.1 μg/ml cdc7/Dbf4, 90 min at room temperature; read-out: Inhibitory rate (%) at 1 μM
T1 construct: Full-length cdc7 co-expressed with full-length Dbf4; purchased Carna Bioscience, Inc. (Kobe, Japan)
T1 sequence (O00311 whole entry): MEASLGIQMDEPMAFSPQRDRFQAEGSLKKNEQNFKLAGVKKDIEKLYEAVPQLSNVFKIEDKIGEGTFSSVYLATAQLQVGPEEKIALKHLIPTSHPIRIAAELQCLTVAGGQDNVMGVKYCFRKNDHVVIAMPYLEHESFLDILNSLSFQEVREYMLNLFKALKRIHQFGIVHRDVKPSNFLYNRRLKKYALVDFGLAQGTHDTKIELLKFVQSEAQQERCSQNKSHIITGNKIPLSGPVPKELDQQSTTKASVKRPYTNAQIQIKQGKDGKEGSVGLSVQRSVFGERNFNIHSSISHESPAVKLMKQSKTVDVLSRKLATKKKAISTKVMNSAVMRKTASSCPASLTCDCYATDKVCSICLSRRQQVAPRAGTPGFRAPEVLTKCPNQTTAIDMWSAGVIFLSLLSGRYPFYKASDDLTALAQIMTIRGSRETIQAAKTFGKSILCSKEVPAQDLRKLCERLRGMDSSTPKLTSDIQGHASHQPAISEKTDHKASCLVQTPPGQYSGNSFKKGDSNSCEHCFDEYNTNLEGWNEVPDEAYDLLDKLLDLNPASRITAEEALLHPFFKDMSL
T1 sequence (Q9UBU7 whole entry partner): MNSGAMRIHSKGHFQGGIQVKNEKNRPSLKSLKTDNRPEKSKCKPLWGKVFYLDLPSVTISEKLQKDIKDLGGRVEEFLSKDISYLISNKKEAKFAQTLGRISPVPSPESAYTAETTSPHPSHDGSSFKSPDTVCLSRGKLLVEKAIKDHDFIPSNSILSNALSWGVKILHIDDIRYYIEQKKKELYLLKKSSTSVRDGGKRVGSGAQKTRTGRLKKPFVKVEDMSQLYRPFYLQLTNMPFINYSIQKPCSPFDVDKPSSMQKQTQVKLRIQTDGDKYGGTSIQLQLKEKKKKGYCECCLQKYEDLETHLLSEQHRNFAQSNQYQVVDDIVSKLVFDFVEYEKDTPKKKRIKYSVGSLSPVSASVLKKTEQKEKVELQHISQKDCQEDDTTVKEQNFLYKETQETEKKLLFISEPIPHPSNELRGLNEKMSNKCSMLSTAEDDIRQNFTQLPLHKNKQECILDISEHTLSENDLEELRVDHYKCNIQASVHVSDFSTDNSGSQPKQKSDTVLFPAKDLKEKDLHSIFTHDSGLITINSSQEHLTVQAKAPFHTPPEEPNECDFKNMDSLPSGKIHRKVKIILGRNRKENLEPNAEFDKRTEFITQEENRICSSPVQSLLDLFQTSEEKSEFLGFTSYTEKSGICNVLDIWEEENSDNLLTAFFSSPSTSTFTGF
Experimental: Full-length cdc7 co-expressed with full-length Dbf4 was purchased from Carna Bioscience, Inc. (Kobe, Japan). Homogeneous time-resolved fluorescence (HTRF) Transcreener ADP assay (Cisbio Inc., MA., U.S.A.) was used for detecting cdc7/Dbf4 kinase activity. Reactions were performed in kinase buffer (20 mM HEPES, pH 7.5, 10 mM magnesium acetate, 1 mM dithiothreitol) containing 1.0 μM ATP, 10 μg/ml MCM2, 0.1 μg/ml cdc7/Dbf4 for 90 min at room temperature. Free ADP from the ATP hydrolysis reaction was detected by the monoclonal ADP antibody labeled with Eu^3+-Cryptate, which competes with both native ADP and d2-coupled ADP. The TR-FRET signal was detected by EnVision (PerkinElmer Inc., MA, U.S.A.). Cdc7 kinase inhibitory rate (%) of the test compound was calculated by the following formula: Inhibitory rate(%)=(1−(count of test compound−blank)÷(control−blank))×100
The count of the solution reacted without addition of the compound was used as a “control”, and the count of the solution without the compound and cdc7/Dbf4 was used as a “blank”.

Colo205 cells = assay: Determination of cell proliferation inhibitory activity (Cell Titer-Glo Luminescent Cell Viability Assay); format: cell-based; conditions: Homo sapiens, COLO 205, 72 h, test compound 1 μM, incubation for 3 days, cellular ATP content, read-out: Inhibitory rate (%) at 1 μM
Experimental: Cell proliferation was measured by using Cell Titer-Glo Luminescent Cell Viability Assay (Promega, Wis., USA,). The CellTiter-Glo Luminescent Cell Viability Assay is a homogeneous method of determining the number of viable cells in culture based on quantitation of the ATP present, which signals the presence of metabolically active cells. Colo205 cells (American Type Culture Collection) were sown at 3.0×10^3 cells/well to a 96 well microplate and cultured in an incubator (37° C., 5% carbon dioxide). On the following day, 100 μl of a solution of each test compound, which was previously diluted, was added. According to the instruction manual from vender, cellular ATP content of final treatment day was measured. After incubation for 3 days, solution of Cell Titer-Glo Luminescent Cell Viability Assay was added to each well and incubated for approximately 15 min at room temperature. Luminescence of each well was measured by ARVO Light (PerkinElmer Inc., MA, USA). Taking as 100% the ATP content for the none compound treatment control group, the ratio of the residual ATP content for each treatment group was determined.

inhibition at 1 µM (cdc7/Dbf4) | Compound | inhibition at 1 µM (Colo205 cells)
98.5% | O=C1NC2(CCCCC2)Nc2cc(-c3ccncc3)sc21 [Example 6, 6′-(pyridin-4-yl)-1′H-spiro[cyclohexane-1,2′-thieno[3,2-d]pyrimidin]-4′(3′H)-one] | –
103% | O=C1NC2(CCN(C(=O)OCc3ccccc3)CC2)Nc2cc(-c3ccncc3)sc21 [Example 9, benzyl 4′-oxo-6′-(pyridin-4-yl)-3′,4′-dihydro-1′H-spiro[piperidine-4,2′-thieno[3,2-d]pyrimidine]-1-carboxylate] | –
97.6% | CCN1c2cc(-c3ccncc3)sc2C(=O)NC1(C)C [Example 15, 1-ethyl-2,2-dimethyl-6-(pyridin-4-yl)-2,3-dihydrothieno[3,2-d]pyrimidin-4(1H)-one] | –
97.1% | CC1(CC(F)(F)F)NC(=O)c2sc(-c3ccncc3)cc2N1 (stereo not shown) [Example 22, 2-methyl-6-(pyridin-4-yl)-2-(2,2,2-trifluoroethyl)-2,3-dihydrothieno[3,2-d]pyrimidin-4(1H)-one] | –
101% | CCN1c2cc(-c3ccncc3)sc2C(=O)NC12CCCC2 [Example 27, 1′-ethyl-6′-(pyridin-4-yl)-1′H-spiro [cyclopentane-1,2′-thieno[3,2-d]pyrimidin]-4′(3′H)-one] | 59.6%
104% | CC1(C)NC(=O)c2sc(-c3cn[nH]c3)cc2N1 [Example 34, 2,2-dimethyl-6-(1H-pyrazol-4-yl)-2,3-dihydrothieno[3,2-d]pyrimidin-4(1H)-one] | –
101% | Cc1[nH]ncc1-c1cc2c(s1)C(=O)NC(C)(CC(F)(F)F)N2C (stereo not shown) [Example 104, 1,2-dimethyl-6-(5-methyl-1H-pyrazol-4-yl)-2-(2,2,2-trifluoroethyl)-2,3-dihydrothieno[3,2-d]pyrimidin-4(1H)-one] | 62.9%
– | CCN1c2cc(-c3cn[nH]c3C)sc2C(=O)NC1(C)C [Example 114, 1-ethyl-2,2-dimethyl-6-(5-methyl-1H-pyrazol-4-yl)-2,3-dihydrothieno[3,2-d]pyrimidin-4(1H)-one] | 67.4%
– | Cc1[nH]ncc1-c1cc2c(s1)C(=O)NC(C)(C)N2CC(F)F [Example 115, 1-(2,2-difluoroethyl)-2,2-dimethyl-6-(5-methyl-1H-pyrazol-4-yl)-2,3-dihydrothieno[3,2-d]pyrimidin-4(1H)-one] | 66.1%
91.8% | Cc1[nH]ncc1-c1cc2c(s1)C(=O)NC1(CCCCC1F)N2 (stereo not shown) [Example 122, 2-fluoro-6′-(5-methyl-1H-pyrazol-4-yl)-1′H-spiro [cyclohexane-1,2′-thieno[3,2-d]pyrimidin]-4′(3′H)-one] | 48.9%
